Experimental data published in ChEMBL document CHEMBL5584335, “Investigating Active Site Binding of Ligands to High and Low Activity Carbonic Anhydrase Enzymes Using Native Mass Spectrometry” (J Med Chem, 2024).
Calls of active or inactive are those of the source. The calls are words filed in the database; no cut-off is given here.

How the values were obtained:
Carbonic anhydrase 3 [1] = molecular target: T1, Carbonic anhydrase 3 (Homo sapiens, UniProt P07451); experiment: Binding affinity to human recombinant CA III active site expressed in Escherichia coli BL21 (DE3) pLysS cells at 18.18 uM at protein:compound ratio of 1:2 incubated for 30 mins by native mass spectrometry analysis
T1 sequence (P07451 whole entry): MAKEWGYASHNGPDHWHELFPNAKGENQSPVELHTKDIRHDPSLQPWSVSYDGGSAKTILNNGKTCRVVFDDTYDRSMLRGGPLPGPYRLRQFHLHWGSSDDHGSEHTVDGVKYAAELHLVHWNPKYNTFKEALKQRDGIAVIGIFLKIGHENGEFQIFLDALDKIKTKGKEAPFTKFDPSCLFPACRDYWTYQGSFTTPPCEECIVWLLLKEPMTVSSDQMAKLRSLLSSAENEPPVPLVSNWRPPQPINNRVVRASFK

Carbonic anhydrase 3 [2] = molecular target: T1, Carbonic anhydrase 3; experiment: Binding affinity to human recombinant CA III assessed as inhibition constant

SMILES	Activity (Carbonic anhydrase 3 [1])	Ki (Carbonic anhydrase 3 [2]) [µM]
CC1Cc2ccccc2N1NC(=O)c1ccc(Cl)c(S(N)(=O)=O)c1 (stereo unspecified)	inactive	
Cc1ccc(-c2cc(C(F)(F)F)nn2-c2ccc(S(N)(=O)=O)cc2)cc1	inactive	
Cc1onc(-c2ccccc2)c1-c1ccc(S(N)(=O)=O)cc1	inactive	
NS(=O)(=O)c1cc(C(=O)O)c(NCc2ccco2)cc1Cl	inactive	
NS(=O)(=O)c1ccc(N2CCCCS2(=O)=O)cc1	inactive	
CCCCNc1cc(C(=O)O)cc(S(N)(=O)=O)c1Oc1ccccc1 [BUMETANIDE]	inactive	3400
NS(=O)(=O)c1cc2c(cc1Cl)NCNS2(=O)=O [HYDROCHLOROTHIAZIDE]	inactive	790
Cc1ccccc1N1C(=O)c2cc(S(N)(=O)=O)c(Cl)cc2NC1C (stereo unspecified) [METOLAZONE]	inactive	610
